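1) Cells in 96-well plates. 2) Compound, 48 h, 5 concentrations. 3) Linear interpolation between surrounding doses. 4) Unreached endpoint = highest concentration. Abbreviation: GI50, concentration required for 50% inhibition of growth.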 Activity calls are given as the source filed them. Cut-off read from the data, not from the text of the source: active = GI50 up to about 1.1 µM and inactive = higher.
Legend:
Experiment in all cases: NCI tumour cell line growth inhibition, 48 h
UACC-62 = test system: UACC-62
CCRF-CEM = test system: CCRF-CEM
CAKI-1 = test system: CAKI-1
OVCAR-5 = test system: OVCAR-5
PC-3 = test system: PC-3
HL-60 = test system: HL-60
NCI-H23 = test system: NCI-H23
MDA-MB-231 = test system: MDA-MB-231
UACC-257 = test system: UACC-257
DU-145 = test system: DU-145
COLO 205 = test system: COLO 205
HCT-116 = test system: HCT-116
SF-539 = test system: SF-539
BT-549 = test system: BT-549
MDA-N = test system: MDA-N
IGROV-1 = test system: IGROV-1
NCI-H522 = test system: NCI-H522
SNB-75 = test system: SNB-75
T47D = test system: T47D
SK-OV-3 = test system: SK-OV-3
HT-29 = test system: HT-29
Malme-3M = test system: Malme-3M
A498 = test system: A498
HCC 2998 = test system: HCC 2998
MCF7 = test system: MCF7
SR = test system: SR
SK-MEL-2 = test system: SK-MEL-2
SK-MEL-5 = test system: SK-MEL-5
K562 = test system: K562
NCI-H226 = test system: NCI-H226
SK-MEL-28 = test system: SK-MEL-28
U-251 = test system: U-251
UO-31 = test system: UO-31
MOLT-4 = test system: MOLT-4
OVCAR-3 = test system: OVCAR-3
MDA-MB-435 = test system: MDA-MB-435
A549 = test system: A549
M14 = test system: M14
HCT-15 = test system: HCT-15
NCI/ADR-RES = test system: NCI/ADR-RES
SF-295 = test system: SF-295
Hs-578T = test system: Hs-578T
SNB-19 = test system: SNB-19
OVCAR-8 = test system: OVCAR-8
HOP-62 = test system: HOP-62
SW-620 = test system: SW-620
TK-10 = test system: TK-10
SN12C = test system: SN12C
ACHN = test system: ACHN
786-0 = test system: 786-0
NCI-H460 = test system: NCI-H460
SF-268 = test system: SF-268
KM12 = test system: KM12
RPMI-8226 = test system: RPMI-8226
EKVX = test system: EKVX
OVCAR-4 = test system: OVCAR-4
HOP-92 = test system: HOP-92
LOX IMVI = test system: LOX IMVI
RXF 393 = test system: RXF 393

Q: Which results are given for CC(C)c1cccc(C(=O)NCCN(C)C)c1[N+](=O)[O-]?
A: GI50 (UACC-62): > 100 µM (inactive); GI50 (CCRF-CEM): > 100 µM (inactive); GI50 (CAKI-1): > 100 µM (inactive); GI50 (OVCAR-5): > 100 µM (inactive); GI50 (PC-3): > 100 µM (inactive); GI50 (HL-60): > 100 µM (inactive); GI50 (NCI-H23): > 100 µM (inactive); GI50 (MDA-MB-231): > 100 µM (inactive); GI50 (UACC-257): > 100 µM (inactive); GI50 (DU-145): > 100 µM (inactive); GI50 (COLO 205): > 100 µM (inactive); GI50 (HCT-116): > 100 µM (inactive); GI50 (SF-539): > 100 µM (inactive); GI50 (BT-549): 19.5 µM (inactive); GI50 (MDA-N): > 100 µM (inactive); GI50 (IGROV-1): > 100 µM (inactive); GI50 (NCI-H522): > 100 µM (inactive); GI50 (SNB-75): 35 µM (inactive); GI50 (T47D): > 100 µM (inactive); GI50 (SK-OV-3): > 100 µM (inactive); GI50 (HT-29): > 100 µM (inactive); GI50 (Malme-3M): > 100 µM (inactive); GI50 (A498): 65.9 µM (inactive); GI50 (HCC 2998): > 100 µM (inactive); GI50 (MCF7): > 100 µM (inactive); GI50 (SR): > 100 µM (inactive); GI50 (SK-MEL-2): > 100 µM (inactive); GI50 (SK-MEL-5): > 100 µM (inactive); GI50 (K562): > 100 µM (inactive); GI50 (NCI-H226): > 100 µM (inactive); GI50 (SK-MEL-28): > 100 µM (inactive); GI50 (U-251): > 100 µM (inactive); GI50 (UO-31): > 100 µM (inactive); GI50 (MOLT-4): > 100 µM (inactive); GI50 (OVCAR-3): > 100 µM (inactive); GI50 (MDA-MB-435): > 100 µM (inactive); GI50 (A549): 80.2 µM (inactive); GI50 (M14): > 100 µM (inactive); GI50 (HCT-15): > 100 µM; GI50 (NCI/ADR-RES): > 100 µM (inactive); GI50 (SF-295): > 100 µM (inactive); GI50 (Hs-578T): > 100 µM (inactive); GI50 (SNB-19): > 100 µM (inactive); GI50 (OVCAR-8): > 100 µM (inactive); GI50 (HOP-62): > 100 µM (inactive); GI50 (SW-620): > 100 µM (inactive); GI50 (TK-10): > 100 µM (inactive); GI50 (SN12C): > 100 µM (inactive); GI50 (ACHN): > 100 µM (inactive); GI50 (786-0): > 100 µM (inactive); GI50 (NCI-H460): > 100 µM (inactive); GI50 (SF-268): > 100 µM (inactive); GI50 (KM12): > 100 µM (inactive)

Q: Which results are given for COc1ccc(C(=C(I)c2ccccc2)c2ccc(OC)cc2)cc1?
A: GI50 (UACC-62): > 100 µM (inactive); GI50 (CCRF-CEM): > 100 µM (inactive); GI50 (CAKI-1): > 100 µM (inactive); GI50 (RPMI-8226): > 100 µM (inactive); GI50 (OVCAR-5): > 100 µM (inactive); GI50 (PC-3): > 100 µM (inactive); GI50 (HL-60): 64.9 µM (inactive); GI50 (NCI-H23): > 100 µM (inactive); GI50 (MDA-MB-231): > 100 µM (inactive); GI50 (UACC-257): > 100 µM (inactive); GI50 (DU-145): > 100 µM (inactive); GI50 (COLO 205): > 100 µM (inactive); GI50 (HCT-116): 51.3 µM (inactive); GI50 (EKVX): > 100 µM (inactive); GI50 (SF-539): > 100 µM (inactive); GI50 (BT-549): > 100 µM (inactive); GI50 (MDA-N): > 100 µM (inactive); GI50 (IGROV-1): > 100 µM (inactive); GI50 (OVCAR-4): > 100 µM (inactive); GI50 (NCI-H522): > 100 µM (inactive); GI50 (T47D): 19.1 µM (inactive); GI50 (SK-OV-3): > 100 µM (inactive); GI50 (HT-29): 7.23 µM (inactive); GI50 (HOP-92): > 100 µM (inactive); GI50 (Malme-3M): > 100 µM (inactive); GI50 (HCC 2998): > 100 µM (inactive); GI50 (MCF7): 21.6 µM (inactive); GI50 (SR): > 100 µM (inactive); GI50 (SK-MEL-2): > 100 µM (inactive); GI50 (SK-MEL-5): 49.8 µM (inactive); GI50 (K562): > 100 µM (inactive); GI50 (LOX IMVI): > 100 µM (inactive); GI50 (NCI-H226): > 100 µM (inactive); GI50 (SK-MEL-28): > 100 µM (inactive); GI50 (U-251): > 100 µM (inactive); GI50 (UO-31): > 100 µM (inactive); GI50 (MOLT-4): > 100 µM (inactive); GI50 (OVCAR-3): > 100 µM (inactive); GI50 (MDA-MB-435): > 100 µM (inactive); GI50 (A549): > 100 µM (inactive); GI50 (M14): > 100 µM (inactive); GI50 (HCT-15): 65.6 µM; GI50 (NCI/ADR-RES): > 100 µM (inactive); GI50 (SF-295): > 100 µM (inactive); GI50 (Hs-578T): > 100 µM (inactive); GI50 (SNB-19): > 100 µM (inactive); GI50 (OVCAR-8): > 100 µM (inactive); GI50 (HOP-62): > 100 µM (inactive); GI50 (SW-620): > 100 µM (inactive); GI50 (TK-10): > 100 µM (inactive); GI50 (SN12C): > 100 µM (inactive); GI50 (ACHN): > 100 µM (inactive); GI50 (786-0): > 100 µM (inactive); GI50 (NCI-H460): > 100 µM (inactive); GI50 (RXF 393): > 100 µM (inactive); GI50 (SF-268): > 100 µM (inactive); GI50 (KM12): > 100 µM (inactive)

Q: Which results are given for CCC1(C)NC(c2cnccn2)=NN1c1ccc(Cl)cc1 (stereo not drawn)?
A: GI50 (UACC-62): > 100 µM (inactive); GI50 (CCRF-CEM): 18.7 µM (inactive); GI50 (CAKI-1): > 100 µM (inactive); GI50 (RPMI-8226): 30 µM (inactive); GI50 (OVCAR-5): > 100 µM (inactive); GI50 (PC-3): 65.9 µM (inactive); GI50 (HL-60): 48.8 µM (inactive); GI50 (NCI-H23): > 100 µM (inactive); GI50 (MDA-MB-231): > 100 µM (inactive); GI50 (UACC-257): 21.9 µM (inactive); GI50 (DU-145): 65.2 µM (inactive); GI50 (COLO 205): > 100 µM (inactive); GI50 (HCT-116): 66.8 µM (inactive); GI50 (EKVX): > 100 µM (inactive); GI50 (SF-539): > 100 µM (inactive); GI50 (BT-549): > 100 µM (inactive); GI50 (MDA-N): > 100 µM (inactive); GI50 (IGROV-1): > 100 µM (inactive); GI50 (OVCAR-4): 63.2 µM (inactive); GI50 (NCI-H522): > 100 µM (inactive); GI50 (SNB-75): 19.3 µM (inactive); GI50 (T47D): 15.5 µM (inactive); GI50 (SK-OV-3): > 100 µM (inactive); GI50 (HT-29): 88.1 µM (inactive); GI50 (HOP-92): > 100 µM (inactive); GI50 (Malme-3M): 41.9 µM (inactive); GI50 (A498): > 100 µM (inactive); GI50 (MCF7): 45.4 µM (inactive); GI50 (SR): 22.1 µM (inactive); GI50 (SK-MEL-2): > 100 µM (inactive); GI50 (SK-MEL-5): > 100 µM (inactive); GI50 (K562): 39.3 µM (inactive); GI50 (LOX IMVI): 35.9 µM (inactive); GI50 (NCI-H226): > 100 µM (inactive); GI50 (SK-MEL-28): > 100 µM (inactive); GI50 (U-251): 52.8 µM (inactive); GI50 (UO-31): > 100 µM (inactive); GI50 (MOLT-4): 32.7 µM (inactive); GI50 (OVCAR-3): 39.8 µM (inactive); GI50 (MDA-MB-435): > 100 µM (inactive); GI50 (A549): > 100 µM (inactive); GI50 (M14): > 100 µM (inactive); GI50 (HCT-15): > 100 µM; GI50 (NCI/ADR-RES): > 100 µM (inactive); GI50 (SF-295): > 100 µM (inactive); GI50 (Hs-578T): > 100 µM (inactive); GI50 (SNB-19): > 100 µM (inactive); GI50 (OVCAR-8): > 100 µM (inactive); GI50 (HOP-62): > 100 µM (inactive); GI50 (SW-620): 45.3 µM (inactive); GI50 (TK-10): 70.3 µM (inactive); GI50 (SN12C): 29 µM (inactive); GI50 (ACHN): > 100 µM (inactive); GI50 (786-0): 73.8 µM (inactive); GI50 (NCI-H460): 81.7 µM (inactive); GI50 (RXF 393): 41.7 µM (inactive); GI50 (SF-268): > 100 µM (inactive); GI50 (KM12): > 100 µM (inactive)

Reference: ChEMBL document CHEMBL1201862, “PubChem BioAssay data set” (2004)
